Laboratory results from patent publication US8026208B2, “Peptide tyrosinase inhibitors and uses thereof” (The Board of Trustees of the Leland Stanford Junior …, priority 2007, dated 2011).
No end group written: not given here.

Columns and labels:
[1] = tested on: Primary human melanocytes; type: cell-based; conditions: 24 h, 100 µM
Protocol: (§1) Primary human melanocytes were kindly obtained from Dr. Todd Ridky in the department of dermatology, Stanford University. Cells were cultured in Medium 254 (Cascade Biologics) supplemented with Human Melanocyte Growth Supplement (HMGS, Cascade Biologics). They were grown in a humidified atmosphere with 5% CO2 at 37° C. Cell plating densities were arranged that those cells were in log phase of growth for the duration of incubation with test samples. Subcultures of cells were plated at a density of 4×10^4 cells/cm^2. Approximately 24 h later, fresh medium and test samples were added. Cells were harvested 7 d after test samples addition, replaced with fresh medium and test samples every two days.
Cell viability was determined using WST-1 Cell Proliferation Kit (Roche). Cells were plated at 1×10^5/well (24-well plates). Twenty-four hours after plating, test samples were added and cultures were incubated for an additional 7 d. At the end of the treatment period, 50 μl WST-1 was added to each well. The plates were placed at 37° C. for 4 h in the dark and the absorbance at 450 nm was read using microplate. Usually, 3 replicate wells were measured for each group to be tested. Wells containing medium but no cells served as controls. Cell viability was calculated according to the equation: cell viability=absorbance (sample tested)/absorbance (medium only)×100%. Assay of Cellular Tyrosinase Activity […]

[2] = tested on: Primary human melanocytes; test: Melanocyte proliferation rate; type: cell-based; conditions: up to 10 μM
Protocol: as §1
To exclude the possibility that the inhibitory effects of RA peptide on melanogenesis might be caused by the inhibition of cell growth, we compared the number of cells grown in the presence and absence of test samples.

Human melanocytes = test: Melanin content measurement in melanocytes; type: cell-based; conditions: 10 μM (peptide: similar concentration), 7 days
Protocol: as §1
Human melanocytes were cultured in 6-well plates and treated with individual test samples for 7 d. After washes in PBS, cells were detached by short incubation in trypsin/EDTA (0.25%/0.1% in PBS). An aliquot was used for cell count. […] Melanin concentrations were calculated by comparison of the OD at 475 nm of unknown samples with a standard curve obtained with synthetic melanin.
To provide more direct evidence that RA peptide inhibits melanogenesis, its effects on melanin production in melanocytes was studied. The contents of melanin in melanocytes treated with no addition, RA peptide or HQ for 7 days were determined with a spectrophotometer and compared with a melanin standard curve. […]

[3] = molecular target: T1, cellular tyrosinase activity of melanocytes (Homo sapiens, UniProt P14679); test: Assay of cellular tyrosinase activity with L-DOPA as substrate; type: cell-based; conditions: 7 d treatment
T1 construct: Primary human melanocytes were kindly obtained from Dr. Todd Ridky; endogenous in cells; host or cells: primary human melanocytes (passage 3)
T1 sequence (P14679 19-529): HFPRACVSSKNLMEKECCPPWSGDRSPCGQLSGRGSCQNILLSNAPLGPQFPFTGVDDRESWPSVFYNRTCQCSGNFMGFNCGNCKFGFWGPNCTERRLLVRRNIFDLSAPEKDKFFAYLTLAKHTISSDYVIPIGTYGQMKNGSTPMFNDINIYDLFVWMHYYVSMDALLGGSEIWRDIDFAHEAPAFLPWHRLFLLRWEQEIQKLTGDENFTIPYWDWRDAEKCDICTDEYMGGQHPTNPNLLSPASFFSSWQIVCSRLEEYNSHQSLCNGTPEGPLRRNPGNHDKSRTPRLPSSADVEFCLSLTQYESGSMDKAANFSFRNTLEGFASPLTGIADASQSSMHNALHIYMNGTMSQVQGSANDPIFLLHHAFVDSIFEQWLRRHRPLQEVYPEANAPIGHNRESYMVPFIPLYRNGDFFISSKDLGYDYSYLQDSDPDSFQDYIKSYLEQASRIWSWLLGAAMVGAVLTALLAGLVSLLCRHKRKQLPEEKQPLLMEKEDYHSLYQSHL
Protocol: as §1
Human melanocytes were cultured in 6-well plates. After treatment with individual test samples for 7 d, the cells were washed with phosphate-buffered saline (PBS) and lysed with phosphate buffer, pH 6.8, containing 1% Triton X-100. After sonication, lysates were clarified by centrifugation at 10000 g for 10 min. After determination of protein content with a Bio-Rad protein assay kit, lysates were added to 96 well culture plate containing equal amounts of protein (40 μg), and adjusted with lysis buffer to reach 150 μl in each well. 75 μl of 10 mM L-DOPA dissolved in lysis buffer was added to each well. The culture plate was incubated at 37° C. for 30 min, and then read with the spectrophotometer at 475 nm.
Tyrosinase inhibitory activity was calculated with the following formula: tyrosinase inhibition (%)=[1−(O.D.475 of sample/O.D.475 of control)]×100%.
We also examined the inhibitory action of RA peptide on cellular tyrosinase activity of melanocytes, using L-DOPA as substrate. After centrifugation and protein calculation, certain volume of supernatant for each sample was transferred to 96 well culture plate by compensating a certain protein content in each well, and adjusted the volume of each well to 150 μl with 0.067M of phosphate buffer (pH 6.8). 75 μl of 10 mM L-DOPA dissolved in phosphate buffer (pH 6.8) was added to each well. The culture plate was incubated at 37° C. for 30 min, and then read with the spectrophotometer at 475 nm.

tyrosinase = conditions: read-out: published IC50; cited from earlier work
Mushroom tyrosinase [4] = test: Tyrosinase inhibition at single concentration (melanin synthesis evaluation); type: biochemical; conditions: for considered effective in these assays: mushroom tyrosinase and B-16 assays, SF 8 mM, PLG 3 mM
Protocol: Peptides SF, VL, and PLG-OH were tested, along with controls of kojic acid, a known tyrosinase inhibitor, and licorice extracts, a known tyrosinase inhibitor (See J. Agric. Food Chem., 51 (5), 1201-1207, 2003). Tyrosinase inhibition was measured using mushroom tyrosinase (Sigma Aldrich cat # T3824) and L-tyrosine (Sigma Aldrich cat # T8566) in an assay buffer consisting of phosphate buffer (1.0M, pH 6.8) and 5%, and absolute water. The assay buffer, with test sample concentrations and tyrosinase, was incubated in the dark at room temperature for one hour and absorption was read.

Mushroom tyrosinase [5] = test: Mushroom tyrosinase inhibition, colorimetric detection of dopachrome (IC50, kinetics); type: biochemical; conditions: L-tyrosine substrate, pH 6.8, 37° C., absorbance 475 nm at 30 min
Protocol: Mushroom tyrosinase, L-tyrosine and other chemicals for the enzymatic reaction were obtained from Sigma-Aldrich. […] It is understood that research grade reagents were used for convenience, and it is preferred that the peptides be prepared to pharmaceutical grade purity, greater than 90%, preferably greater than 99% pure. Inhibition of tyrosinase by experimental peptides was determined by calorimetric detection of dopachrome, the reaction product of the substrate L-tyrosine. Mushroom tyrosinase, L-tyrosine, and a potassium phosphate buffer (pH 6.8) were added to 96-well plates containing short sequence peptides dissolved in 5% DMSO and incubated at 37° C. The absorbance at 475 nm was measured using a BIO-TEK plate reader 30 min after reaction initiation. Each experiment was performed in triplicate on 3 separate occasions. The protocol is described in further detail in Piao et al., “Mushroom Tyrosinase Inhibition Activity of Some Chromones,” Chem. Pharm. Bull. 56(3): 309-311 (2002), and in Pomerants, J. Biol. Chem 238:2351-2357 (1963). Enzyme kinetics were calculated using the Michaelis-Menton equation by observing changes in reaction velocity accompanying substrate concentrations of 0.5, 1, 2, and 4 mM L-tyrosine. Once initial reaction velocities were obtained, Lineweaver-Burke plots were created to calculate Km, Vmax, and to determine the mode of enzymatic inhibition.

[6] = tested on: facial pigmentation of patients with recalcitrant melasma; test: Clinical study in patients with recalcitrant melasma; type: in vivo, human; conditions: peptide in liposomes at 1%
From the text: Patients with recalcitrant melasma (those that failed over the counter products, or HQ 4% for six months, or Tri-luma® Cream for six months) were randomized and blinded to two treatment groups (vehicle and peptide). Patients applied each product twice per day followed by a sunscreen with a sun protection factor of 30 Qam. Patients were then asked to rate the percentage improvement in their facial pigmentation using a nominal scale of 0-100, with 0 corresponding to no change and 100 corresponding to complete resolution. The results are shown in FIG. 3, in which the PLG-OH peptide is shown to be rated as 40-50% improvement, where vehicle caused no improvement. The peptide was formulated in liposomes at 1%, and the control was the liposomes alone.

[7] = tested on: B16-F10 mouse melanoma cells; test: Cell viability by MTT assay in B-16 pigmentation assay; type: cell-based
Protocol: (§2) The B-16 pigmentation assay used B16-F10 mouse melanoma cells (ATCC CRL-6475) grown in DMEM, DMEM without phenol red, FBS, antibiotics, L-glutamine and other standard components. Cells were counted in a Packard Spectracount (microplate spectrophotometer) filtered at 540 nm and 570 nm. The cells were cultured with growth medium and incubated for 24 hrs. at 37° C. and 10% CO2. Cells were treated with 200 μl of growth medium containing test active ingredient and incubated at 37° C. and 10% CO2. After 7 days, the cells were read at 540 nm using the Packard microplate reader. Cell viability was assessed using the MTT assay (Mosmann T. Rapid colorimetric assay for cellular growth and survival: application to proliferation and cytotoxicity assays. J Immunol Methods. 1983 Dec. 16; 65(1-2):55-63), which is used to determine the number of living cells in a sample.

[8] = tested on: B16-F10 mouse melanoma cells; test: B-16 pigmentation assay; type: cell-based; conditions: concentration tested 8 mM, 7 days
Protocol: as §2

[9] = Solubility in tyrosinase assay buffer; type: physicochemical; conditions: 8 mM
[10] = Stability testing of 1% peptide solutions by HPLC/MS; conditions: 1% solution, sealed tube, ambient, HPLC or MS, 4 months
Protocol: A sixth peptide, VLLK (SEQ ID NO: 3), was used as inner standard for quantitative evaluation of other peptide stability.
HPLC/MS: A 1% solution was prepared for each peptide and sealed in a tube, which was kept in ambient environment. High Performance Liquid Chromatography (HPLC) and Mass Spectroscopy (MS) were tested periodically at an approximate time range of 30 days. A fresh 1% VLLK (SEQ ID NO: 3) solution used as inner standard was prepared on the same day of each test. The amount of each peptide was determined by its peak area relative to that of VLLK (SEQ ID NO: 3).

## Oc1ccc(O)cc1 [HQ, Hydroquinone]
[1]
  cell death: 100%
[2]
  inhibitory effects on melanocyte proliferation rates: did not show inhibitory effects
Human melanocytes
  melanin content: slightly reduced
[3]; 10 μM
  reduction of cellular tyrosinase activity: 28.8%
tyrosinase
  IC50: ~700 µM

## O=c1cc(CO)occ1O [Kojic Acid, 5-hydroxy-2-(hydroxymethyl)-4-pyrone, reference compound]
Mushroom tyrosinase [4]; concentration tested 0.25%
  % Tyrosinase inhibition: 94%

## PLG-OH [tripeptide PLG with native amino and carboxy termini, distinguished from PLG-NH2]
Mushroom tyrosinase [5]
  IC50: 2730 µM
[6]; 4-month exposure
  side effects (erythema, scaling, contact dermatitis reaction, comedone formation): no side effects
[6]; patient-rated scale 0-100, applied twice per day
  percentage improvement in facial pigmentation: 40-50%
Mushroom tyrosinase [4]; concentration tested 3 mM
  % Tyrosinase inhibition: 6%
Mushroom tyrosinase [4]
  considered effective in these assays: Neither SF peptide nor PLG was considered effective
[7]; concentration tested 3 mM
  cytotoxicity (printed in the % Depigmentation column): cyto-toxic

## RADSRADC [RA peptide, RADSRADC]
[7]; 150, 300 and 450 uM
  Viability: not significantly affected
[3]; 1 μM
  reduction of cellular tyrosinase activity: 1.2%
[3]; 10 μM
  reduction of cellular tyrosinase activity: 15.6%
[3]; 100 μM
  reduction of cellular tyrosinase activity: 21.1%

## SFLLRN [SF peptide]
Mushroom tyrosinase [4]
  considered effective in these assays: Neither SF peptide nor PLG was considered effective
[8]
  % Depigmentation (B-16 Assay): 0%
[9]
  solubility in buffer: ND (insoluble
[10]
  degradation: did not show degradation

## VLLK [VL peptide, reference compound]
Mushroom tyrosinase [5]
  IC50 (result in words): no effect
